{
  "source": "patent US8999243B2",
  "about": "“Blood coagulation system analyzing method and blood coagulation system analyzing device” (Sony Corporation, priority 2011, dated 2015)",
  "key": {"[1]": {"test_system": "platelets in sample blood (whole blood)", "test": "Dielectric measurement (complex permittivity) of blood coagulation with platelet activating agent", "format": "cell-based, human", "details": "frequency 10.7 MHz", "description": "By using an evacuated blood collection tube treated with use of sodium citrate as an anticoagulant, blood was collected from the healthy person and the patient with thrombocytopenia (the number of platelets in 1 μL of blood was 1.2×10^4) as a whole blood sample. Next, 0.25 M of a calcium chloride aqueous solution was added (85 μL per 1 mL of blood) to the sample blood whose temperature was kept at 37° C. and a blood coagulation reaction was started. The platelet activating agent (ADP) was so added as to be mixed in the calcium chloride aqueous solution (10 μM per 1 mL of blood). Immediately after the start of the blood coagulation reaction, measurement was performed for 60 minutes by using an impedance analyzer (Agilent Corporation, 4294A) under the following condition: temperature was 37° C.; frequency range was 40 Hz to 110 MHz; and measurement time interval was one minute."}, "[2]": {"test_system": "platelets in sample blood / platelet poor blood", "test": "Rheometer (free damped oscillation type) measurement of viscoelasticity change / coagulation time", "format": "cell-based, human", "description": "By using an evacuated blood collection tube treated with use of sodium citrate as an anticoagulant, blood was collected from the healthy person and the patient with thrombocytopenia (the number of platelets in 1 μL of blood was 1.2×10^4) as a whole blood sample. Furthermore, blood cells and platelets were separated from the whole blood sample to prepare platelet poor plasma. The sample blood was centrifuged under a condition of 500 G and five minutes to be separated into blood cells and platelet rich plasma (PRP). The plasma was centrifuged under a condition of 2000 G and 30 minutes and sedimentation of the platelets was caused to obtain the platelet poor plasma (PPP). Measurement was performed by using a rheometer of the free damped oscillation type. The coagulation time was obtained by observing a change in the viscoelasticity and compared with the result by the dielectric measurement."}},
  "data": [
    {"smiles": "Nc1ncnc2c1ncn2[C@@H]1O[C@H](COP(=O)(O)OP(=O)(O)O)[C@@H](O)[C@H]1O", "note": "[ADP, adenosine diphosphate]", "values": [
      {"measurement": "coagulation time with ADP addition", "setting": "[1]; sample blood of patient with thrombocytopenia (1.2×10^4 platelets in 1 μL), ADP added", "value": 38, "unit": "min"},
      {"measurement": "change of coagulation time due to ADP addition (dielectric measurement)", "setting": "[1]; sample blood of patient with thrombocytopenia", "value": "shortening of the coagulation time was found"},
      {"measurement": "average of the coagulation time when the ADP was added", "setting": "[1]; sample blood of plural healthy persons, ADP 10 μM per 1 mL of blood in calcium chloride solution, 37° C., without ADP 31 minutes", "value": 17, "unit": "min"},
      {"measurement": "change of coagulation time due to ADP addition (dielectric measurement)", "setting": "[1]; sample blood of plural healthy persons", "value": "shortening of the coagulation time"},
      {"measurement": "change of coagulation time due to ADP addition (rheometer)", "setting": "[2]; platelet poor blood (cleaned red blood cells added to platelet poor plasma)", "value": "not observed"},
      {"measurement": "change of coagulation time due to ADP addition (rheometer)", "setting": "[2]; sample blood of the healthy person", "value": "shortening of the coagulation time"}
    ]}
  ]
}
